{
  "source": "patent US9624228B2",
  "about": "“Inhibitors of ERK and methods of use” (KURA ONCOLOGY, INC., priority 2013, dated 2017)",
  "data": [
    {"biological_target": "ERK2 enzyme (Homo sapiens (Human), UniProt P28482)", "sequence (P28482 whole entry)": "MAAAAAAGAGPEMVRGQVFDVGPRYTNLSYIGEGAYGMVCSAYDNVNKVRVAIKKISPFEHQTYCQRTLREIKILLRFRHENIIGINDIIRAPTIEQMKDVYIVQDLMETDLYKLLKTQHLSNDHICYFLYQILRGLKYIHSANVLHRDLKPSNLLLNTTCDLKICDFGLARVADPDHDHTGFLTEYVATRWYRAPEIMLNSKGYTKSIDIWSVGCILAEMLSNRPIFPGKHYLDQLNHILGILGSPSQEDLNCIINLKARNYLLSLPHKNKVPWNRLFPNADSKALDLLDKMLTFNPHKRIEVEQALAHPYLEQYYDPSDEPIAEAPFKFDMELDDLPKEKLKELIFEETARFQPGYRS", "assay": "Inhibition assay of ERK (Z'-LYTE kinase assay, Ser/Thr 3 peptide substrate)", "assay_type": "biochemical", "conditions": "In vitro ERK2 enzyme, 100 μM ATP", "procedure": "(§1) The inhibition of ERK activity by the compounds disclosed herein was determined using the Z′-LYTE kinase assay kit (Life Technologies) with a Ser/Thr 3 peptide substrate (Life Technologies) according to manufacturers' instructions. […] The IC50 values for the compounds were determined with 3-fold serial dilutions in duplicate. […] The final DMSO concentration in the assay was 1%. Final reaction volume was 20 μL/well in 384-well plates. Kinase reactions were conducted or 1 hour followed by the assay development reaction (1 hour) in a 20 ul/well in a 384 well plate format.", "units": {"IC50": "nM"}, "values": [
      {"compound": "O=C1Nc2cc3[nH]nc(-c4ccnnc4)c3cc2CN1[C@@H]1CCCN(Cc2c(F)cccc2F)C1", "note": "[Compound 122]", "IC50": "< 50"},
      {"compound": "COc1ncc(-c2n[nH]c3cc4c(cc23)CN([C@H](CO)c2cccc(Cl)c2)C(=O)N4)cn1", "note": "[Compound 118]", "IC50": "< 50"},
      {"compound": "O=C1Nc2cc3[nH]nc(-c4ccncc4)c3cc2CN1Cc1ccccc1", "note": "[Compound 1, 6-benzyl-3-(pyridin-4-yl)-1,5,6,8-tetrahydro-7H-pyrazolo[4,3-g]quinazolin-7-one]", "IC50": "< 50"},
      {"compound": "Cc1cc(-c2n[nH]c3cc4c(cc23)CN([C@@H]2CCCN(Cc3cccnc3C)C2)C(=O)N4)ccn1", "note": "[Compound 170]", "IC50": "< 50"},
      {"compound": "Cc1cc(-c2n[nH]c3cc4c(cc23)CN([C@@H]2CCN(Cc3c(F)cccc3F)C2)C(=O)N4)ccn1", "note": "[Compound 147]", "IC50": "50 to 250"},
      {"compound": "Cc1cc(-c2n[nH]c3cc4c(cc23)CN([C@@H]2CCN(Cc3ccccc3)C2)C(=O)N4)ccn1", "note": "[Compound 146]", "IC50": "< 50"},
      {"compound": "Cc1cc(-c2n[nH]c3cc4c(cc23)CN(C2(c3ccc(F)cc3)CC2)C(=O)N4)ccn1", "note": "[Compound 17]", "IC50": "50 to 250"},
      {"compound": "COc1ccc(-c2n[nH]c3cc4c(cc23)CN(Cc2ccc(F)cc2)C(=O)N4)cn1", "note": "[Compound 76]", "IC50": "< 50"},
      {"compound": "CCC(=O)NCCCN1Cc2cc3c(-c4cnc(OC)nc4)n[nH]c3cc2NC1=O", "note": "[Compound 105]", "IC50": "< 50"},
      {"compound": "Cc1cc(-c2n[nH]c3cc4c(cc23)CN(Cc2ccc(Cl)cc2)C(=O)N4)ccn1", "note": "[Compound 14]", "IC50": "< 50"},
      {"compound": "COc1ncc(-c2n[nH]c3cc4c(cc23)CN([C@@H]2CCCN(Cc3c(F)cccc3F)C2)C(=O)N4)cn1", "note": "[Compound 102]", "IC50": "< 50"},
      {"compound": "COc1ncccc1CN1CCC[C@@H](N2Cc3cc4c(-c5ccnc(C)c5)n[nH]c4cc3NC2=O)C1", "note": "[Compound 150]", "IC50": "< 50"},
      {"compound": "Cc1cc(-c2n[nH]c3cc4c(cc23)CN([C@@H]2CCCN(Cc3ccc(F)c(Cl)c3)C2)C(=O)N4)ccn1", "note": "[Compound 134]", "IC50": "< 50"},
      {"compound": "Cc1cc(-c2n[nH]c3cc4c(cc23)CN([C@@H]2CCCN(Cc3cc(C)no3)C2)C(=O)N4)ccn1", "note": "[Compound 139]", "IC50": "< 50"},
      {"compound": "Cc1cc(-c2n[nH]c3cc4c(cc23)CN([C@@H]2CCCN(CC3CCCC3)C2)C(=O)N4)ccn1", "note": "[Compound 138]", "IC50": "50 to 250"},
      {"compound": "COc1ncc(-c2n[nH]c3cc4c(cc23)CCN(Cc2ccc(F)cc2)C(=O)N4)cn1", "note": "[Compound 130]", "IC50": "50 to 250"},
      {"compound": "Cc1cc(-c2n[nH]c3cc4c(cc23)CN(Cc2cc(F)cc(F)c2)C(=O)N4)ccn1", "note": "[Compound 7]", "IC50": "< 50"},
      {"compound": "Cc1cc(-c2n[nH]c3cc4c(cc23)CN(CCN)C(=O)N4)ccn1", "note": "[Compound 83]", "IC50": "< 50"},
      {"compound": "O=C1Nc2cc3[nH]nc(-c4ccnnc4)c3cc2CN1[C@@H]1CCCN(Cc2ccccc2)C1", "note": "[Compound 120]", "IC50": "< 50"},
      {"compound": "Cc1cc(-c2n[nH]c3cc4c(cc23)CN([C@@H]2CCCN(Cc3cncnc3)C2)C(=O)N4)ccn1", "note": "[Compound 166]", "IC50": "< 50"},
      {"compound": "Cc1cc(-c2n[nH]c3cc4c(cc23)CN([C@@H]2CCCN(CCc3cccc(Cl)c3)C2)C(=O)N4)ccn1", "note": "[Compound 164]", "IC50": "< 50"}
    ]},
    {"biological_target": "ERK2 enzyme (Homo sapiens (Human), UniProt P28482)", "assay": "Inhibition assay of ERK (Z'-LYTE kinase assay, Ser/Thr 3 peptide substrate)", "assay_type": "biochemical", "conditions": "In vitro, ERK2 enzyme 0.47 ng/μL, 100 μM ATP", "procedure": "as §1", "units": {"IC50": "nM"}, "values": [
      {"compound": "Cc1cc(-c2n[nH]c3cc4c(cc23)CN(Cc2nc(C)cs2)C(=O)N4)ccn1", "note": "[Compound 246]", "IC50": "< 50"},
      {"compound": "CC(c1ccccc1)c1cc2cc3c(NC4CCOCC4)n[nH]c3cc2[nH]c1=O", "note": "(centres unmarked) [Compound 338]", "IC50": "< 50"},
      {"compound": "Cc1cc(-c2n[nH]c3cc4c(cc23)CN([C@@H]2CCCN(Cc3ccsc3)C2)C(=O)N4)ccn1", "note": "[Compound 252]", "IC50": "< 50"},
      {"compound": "Cc1cc(-c2n[nH]c3cc4c(cc23)CN([C@@H]2CN(CC(F)(F)F)C[C@H]2c2ccccc2)C(=O)N4)ccn1", "note": "[Compound 222]", "IC50": "50 to 250"},
      {"compound": "CC(c1ccccc1)c1cc2cc3c(-c4cnc(N)nc4)n[nH]c3cc2[nH]c1=O", "note": "(centres unmarked) [Compound 334]", "IC50": "< 50"},
      {"compound": "O=C1Nc2cc3[nH]nc(-c4ccncc4)c3cc2CN1[C@@H]1CN(CC(F)(F)F)C[C@H]1c1ccccc1", "note": "[Compound 342]", "IC50": "< 50"},
      {"compound": "Cc1ncccc1-c1n[nH]c2cc3[nH]c(=O)c(C(C)c4ccccc4)cc3cc12", "note": "(centres unmarked) [Compound 335]", "IC50": "< 50"},
      {"compound": "Cc1cc(-c2n[nH]c3cc4c(cc23)CN(CC2CCCCC2)C(=O)N4)ccn1", "note": "[Compound 213]", "IC50": "< 50"}
    ]}
  ]
}
